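96-well plates; 48 h exposure; 5 concentrations. Endpoints by linear interpolation between flanking doses. Not reached: highest tested concentration assigned. TGI: concentration producing complete growth inhibition.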

Test systems include KM12 colon; MOLT-4 leukemia; SF-268 CNS; SF-295 CNS; SK-MEL-2 melanoma; SK-OV-3 ovarian; ACHN renal; M14 melanoma; SR leukemia; MDA-N; PC-3 prostate; BT-549 breast.
What all share (test): NCI-60 cell line screen, 48 h

As for `NC1(C(=O)O)CCCC1`, the TGI in the assay with KM12 colon was > 625 µM; with MOLT-4 leukemia, > 625 µM; in the assay with SF-268 CNS, > 370 µM; in the assay with SF-295 CNS, > 625 µM; in the assay on SK-MEL-2 melanoma, > 625 µM; in the assay with SK-OV-3 ovarian, > 625 µM.

For `CCN(CC)CCCC(C)NC(=O)c1ccc2c(c1)C(=O)c1ccccc1C2=O` (stereo unspecified), the TGI with ACHN renal came to 38.2 µM; in the assay on KM12 colon it was 35.7 µM; in the assay on M14 melanoma it was 33.3 µM; in the assay on MOLT-4 leukemia, 52.8 µM; in the assay with SF-268 CNS it was 80.4 µM; in the assay on SF-295 CNS it was 45.8 µM. For the same molecule, the TGI is 38.9 µM with SK-MEL-2 melanoma, > 93.6 µM in the assay with SK-OV-3 ovarian and 78.1 µM in the assay on SR leukemia.

On to `CC(=O)NC(Cc1ccc(OP(=O)(OCc2ccc([N+](=O)[O-])o2)N(C)CCCCCl)cc1)C(=O)NC(C)c1ccc(OCC2CCCCC2)c(C(N)=O)c1` (stereo unspecified), for which the TGI with ACHN renal came out at 33.4 µM; with KM12 colon it was 8.71 µM; with M14 melanoma, 5.49 µM; in the assay on MDA-N it was 5.22 µM; in the assay with MOLT-4 leukemia, 26.3 µM; with PC-3 prostate it was 10.5 µM. Further, the TGI with SF-268 CNS stood at 6.48 µM; in the assay on SF-295 CNS, 16.9 µM; in the assay with SK-MEL-2 melanoma, 9.2 µM; in the assay with SK-OV-3 ovarian, 37.3 µM; with SR leukemia it was 6.42 µM.

Take `CSCCC(NC(=O)OCc1ccccc1)NC(=O)OCc1ccccc1`: the TGI in the assay with ACHN renal, with M14 melanoma, in the assay on MDA-N, with MOLT-4 leukemia, with PC-3 prostate and in the assay on SF-295 CNS was > 100 µM each time. Besides, the TGI in the assay with SK-MEL-2 melanoma, with SK-OV-3 ovarian and in the assay with SR leukemia was > 100 µM each time.

On to `O=C1c2ccccc2C(=O)c2c(O)ccc(O)c21`, for which the TGI in the assay with ACHN renal, in the assay with KM12 colon, with M14 melanoma, in the assay with MOLT-4 leukemia, in the assay with SF-268 CNS and in the assay on SF-295 CNS was > 100 µM in each case. Further, the TGI in the assay on SK-MEL-2 melanoma and in the assay on SK-OV-3 ovarian was > 100 µM each time.

For the molecule `COC(=O)[C@H](Cc1ccccc1)NP(=O)(O)OCC1C=CC(n2cc(C)c(=O)[nH]c2=O)O1` (stereo partly specified), the TGI in the assay with ACHN renal is 62.6 µM; with BT-549 breast, > 100 µM; in the assay with KM12 colon it was > 100 µM; in the assay with M14 melanoma, > 100 µM; in the assay on MOLT-4 leukemia, > 100 µM; in the assay on PC-3 prostate, > 100 µM. Moreover, the TGI in the assay with SF-268 CNS, in the assay on SF-295 CNS, in the assay on SK-MEL-2 melanoma and in the assay on SK-OV-3 ovarian was > 100 µM throughout.

Turning to `CC(Cc1ccccc1)NC1=NCCO1` (stereo unspecified), the TGI with ACHN renal was > 100 µM; in the assay on MDA-N, 72.3 µM; with MOLT-4 leukemia it was 77.9 µM; in the assay on PC-3 prostate it was > 100 µM; in the assay with SF-295 CNS it was > 100 µM; in the assay with SK-MEL-2 melanoma, > 100 µM. For the same molecule, the TGI with SK-OV-3 ovarian was > 100 µM; with SR leukemia, 63.5 µM.

As to `CC(NC(C#N)CC12CC3CC(CC(C3)C1)C2)c1ccccc1` (stereo unspecified), the TGI in the assay on ACHN renal, with M14 melanoma, in the assay with MDA-N, in the assay with MOLT-4 leukemia, in the assay with PC-3 prostate and with SF-268 CNS was > 100 µM throughout. In addition, the TGI in the assay on SF-295 CNS, in the assay with SK-OV-3 ovarian and in the assay on SR leukemia was > 100 µM in each case.

Regarding `CC[C@@]12C=CC(=S)N(CCSc3ccccc3)[C@@H]1c1c(n(S(=O)(=O)c3ccc(OC)cc3)c3ccccc13)CC2`, the TGI in the assay on BT-549 breast, with KM12 colon, in the assay on M14 melanoma, with MDA-N, in the assay on MOLT-4 leukemia and in the assay with PC-3 prostate was > 100 µM throughout. Besides, the TGI with SF-268 CNS, in the assay with SF-295 CNS, in the assay on SK-MEL-2 melanoma and in the assay with SK-OV-3 ovarian was > 100 µM each time.

Turning to `C#CC(O)/C=C/C(O)CCCC(O)CC#CC(O)C#CC(O)CCCC(O)/C=C/CCCC(=O)CCCCCCCCCCCCCCCC(O)C(O)C#CC(=O)O` (stereo unspecified), the TGI with ACHN renal, with KM12 colon, in the assay on M14 melanoma, in the assay with MDA-N, in the assay with MOLT-4 leukemia and in the assay with PC-3 prostate was > 50 µM each time. In addition, the TGI with SF-268 CNS, in the assay on SF-295 CNS, with SK-MEL-2 melanoma, in the assay on SK-OV-3 ovarian and in the assay on SR leukemia was > 50 µM each time.

As for `CCCCCCC(C)OC(=O)/C=C(\CC(=O)OC(C)CCCCCC)C(=O)OC(C)CCCCCC` (stereo unspecified), the TGI with ACHN renal, with M14 melanoma, with MOLT-4 leukemia, in the assay on SF-268 CNS, in the assay with SF-295 CNS and in the assay with SK-MEL-2 melanoma was > 100 µM throughout. Moreover, the TGI with SK-OV-3 ovarian was > 100 µM.

In the case of `CC(C)OC(=O)[C@@H](O)[C@H](CO)C1=CC([Si](C)(C)c2ccccc2)=CON1`, the TGI in the assay with ACHN renal, in the assay with BT-549 breast, with KM12 colon, in the assay with M14 melanoma, in the assay on MOLT-4 leukemia and with PC-3 prostate was > 100 µM throughout. For the same molecule, the TGI in the assay with SF-268 CNS, in the assay with SF-295 CNS, in the assay on SK-MEL-2 melanoma, in the assay on SK-OV-3 ovarian and in the assay with SR leukemia was > 100 µM each time.

In the case of `O=C1c2ccccc2-c2nc(/C=C/c3ccccc3)cc3c2c1nc1ccccc13`, the TGI in the assay with ACHN renal is > 100 µM; in the assay with BT-549 breast it was > 100 µM; in the assay on KM12 colon, 68.4 µM; with M14 melanoma, > 100 µM; with MOLT-4 leukemia, > 100 µM; in the assay with PC-3 prostate it was > 100 µM. Moreover, the TGI is > 100 µM in the assay with SF-268 CNS; > 100 µM with SF-295 CNS; > 100 µM in the assay with SK-MEL-2 melanoma; > 100 µM in the assay on SK-OV-3 ovarian; 50.6 µM in the assay on SR leukemia.

As for `CCN(CC)CCCOc1cc2c(cc1OC)C(=O)N1CCC[C@H]1C=N2`, the TGI in the assay with ACHN renal was > 100 µM; in the assay with BT-549 breast, 76.1 µM; with KM12 colon it was 48.4 µM; with M14 melanoma, > 100 µM; in the assay with MOLT-4 leukemia, 50.2 µM; with PC-3 prostate, > 100 µM. Moreover, the TGI in the assay on SF-268 CNS is > 100 µM; with SF-295 CNS, 75.5 µM; in the assay with SK-MEL-2 melanoma, > 100 µM; in the assay with SK-OV-3 ovarian, > 100 µM; in the assay on SR leukemia, > 100 µM.

Source of the values: PubChem BioAssay (NCI).
